Measurements as given in patent US20080075730A1, “Methods and compositions for treating biofilms” (priority 2003, published 2008).
In brackets after ≈: the same amount, converted by molar mass. Where two headings read alike, the source gives them in different places.

Assays:
Assay type in all cases: cell-based
[1] = test system: Pseudomonas aeruginosa PA14 wild-type; assay: microbe, parasite or virus in culture; conditions: for MIC: Pseudomonas aeruginosa, read-out: MIC72 h
Protocol: (§1) Antimicrobial susceptibility testing. Antibiotic, metal and biocide susceptibility tests were performed. Antimicrobials were arranged into arrays in microtitre plates that typically consisted of serial two-fold dilutions along the rows of wells (the challenge plates). The first and last wells of every row were used as sterility and growth controls, respectively. […] Biofilms were rinsed with PBS (to remove loosely adherent planktonic cells) and inserted into the challenge plates. After exposure, biofilms were rinsed once in PBS and inserted into microtitre plates containing […] of recovery medium in each well (LB broth, 5 mM GSH, 5 mM L-cys, 1% v/v tween-20). These biofilms were disrupted into the recovery medium using a sonicator, and the recovered cells were serially diluted and plated for viable cell counting. Spot plates from these experiments were incubated for a minimum of 36 h at 35° C. before enumeration. Minimum inhibitory concentration (MIC) values were determined by reading the optical density at 650 nm (OD650) of challenge plates after 72 h at 35° C. using a THERMOmax microplate reader with SOFTMAX PRO data analysis software (Molecular Devices, Sunnyvale, Calif.).
(§2) For susceptibility testing, growth-curve data were used to calibrate incubation times to produce biofilms of similar cell density. […] In this model system, planktonic cells shed from the surface of biofilms served as the inoculum for MIC determinations.

[2] = test system: Pseudomonas aeruginosa PA14 SCV; assay: MIC determination, planktonic cells shed from biofilms (MBEC P&G device); conditions: for MIC: Pseudomonas aeruginosa, PA14, SCV, planktonic cells, OD650 after 72 h at 35° C., mean ± SD of four trials, read-out: MIC72 h
Protocol: as §1, §2

[3] = test system: Pseudomonas aeruginosa PA14 gacS^−; assay: as above; conditions: for MIC: Pseudomonas aeruginosa, PA14, gacS^−, planktonic cells, OD650 after 72 h at 35° C., mean ± SD of four trials, read-out: MIC72 h
Protocol: as §1, §2

[4] = test system: Pseudomonas aeruginosa PA14 wild-type biofilms
Description: (§3) Biofilm formation. Biofilms were aerobically cultivated using the MBEC high-throughput (HTP) or Physiology and Genetics (P&G) device (Innovotech, Edmonton, Canada) as described in the manufacturer's instructions and by Ceri et al. (1999). To summarize, the parts of this batch culture apparatus were used in two ways. The top half of the plastic MBEC™-HTP device is a lid with 96 polystyrene pegs that also fits over a standard 96-well microtitre plate. For Biofilm growth, the bottom half was either (1) a corrugated trough that guided 22 mL of inoculum across the pegs when the device was placed on a rocker at 3.5 rocks per min (HTP format), or (2) a microtitre plate with […] of inoculum in each well that was placed on a gyrorotary shaker at 150 r.p.m. (P&G format). For either assay format, the inoculum was prepared to c. 10^7CFU/mL1 of the desired strain and the inoculated device was incubated at 35° C. and 95% relative humidity for the required time. Unless otherwise noted, all experiments utilized the MBEC P&G assay. Pegs from the devices were collected at specific time points for scanning electron microscopy and scanning confocal laser microscopy. Biofilm cell densities were evaluated by breaking pegs from the lid of the MBEC device with sterile pliers, rinsing the peg in PBS, and subsequent viable-cell counting as described above. PBS containing the […] surfactant Tween-20 (1% v/v) was used to assist in recovery of bacteria from the peg surfaces. Pegs were sonicated for 30 min in an Aquasonic model 250HT ultrasonic cleaner (VWR International, Mississauga, Canada). Samples of broth culture were collected at the same time points and viable cell counts were determined in a similar manner.
as §1, §2

[5] = test system: Pseudomonas aeruginosa PA14 SCV biofilms; assay: Biofilm susceptibility testing (viable cell counts, log-killing, MBEC99.9); conditions: for MBEC99.9: SCV biofilms, 2 h exposure, 3 log10 reduction in viable cells
Description: as §3, §1, §2

[6] = test system: Pseudomonas aeruginosa PA14 gacS^− biofilms; assay: as above; conditions: for Log-survival / No. of survivors / SCV frequency: LB broth; for Log-survival / No. of survivors / SCV frequency / MBEC99.9: 2 h exposure; for MBEC99.9: gacS^− biofilms, 3 log10 reduction in viable cells
Description: as §3, §1, §2

[7] = test system: Pseudomonas aeruginosa PA14 gacS^− biofilms; assay: Frequency of SCV cells arising from 24-h biofilms exposed for 18 h; conditions: in words
Protocol: In an alternative set of experiments, the frequency of SCV cells arising from 24-h biofilms of P. aeruginosa PA14 gacS was evaluated. Antibiotics were diluted from stock solutions into LB broth to obtain final concentrations of […]. These were arranged in triplicate in a micro-titre plate. Biofilms were incubated in these low concentrations of antibacterials for 18 h at 35° C. and 95% relative humidity. Goat and human serum were also assayed in this array, and were kind gifts from The Life and Environmental Sciences Animal Care Facility at the University of Calgary, Department of Biological Sciences. After exposure, biofilms were treated in a manner identical to that described above.
Frequency of phenotypic variation. During the course of susceptibility assays, the proportion of SCV cells recovered from biofilms after exposure to Ag^+ or H2O2 was increased relative to the corresponding growth controls. It was queried whether this may be true for other antimicrobial agents or growth conditions. An array of clinically used antibiotics, saline, and goat and human sera were examined for an ability to select for these SCVs from 24-h biofilms of P. aeruginosa PA14 gacS. Biofilms were exposed to these agents for 18 h and each assay was performed in triplicate. Viable cell counts were determined for each exposure condition, and log-survival was determined. The proportion of SCV cells in bacterial populations recovered from these exposure conditions was calculated as the mean of the proportions from each individual trial.

## O=C(O)c1cn(C2CC2)c2cc(N3CCNCC3)c(F)cc2c1=O [Ciprofloxacin]
[1]; PA14, wild type, planktonic cells, OD650 after 72 h at 35° C., mean ± SD of four trials
  MIC: 0.4 ± 0.2 µg/mL (≈ 1.21 µM)
[1]; wild type vs gacS^− vs SCV, log2 difference or less
  differences in planktonic cell susceptibility between the different strains: no significant differences
[2]
  MIC: 0.8 ± 0.4 µg/mL (≈ 2.41 µM)
[3]
  MIC: 0.7 ± 0.3 µg/mL (≈ 2.11 µM)
[4]; wild type biofilms, 2 h exposure, 3 log10 reduction in viable cells
  MBEC99.9: 0.16 ± 0 µg/mL
[5]
  MBEC99.9: 0.64 ± 0.45 µg/mL
[5]; ratio of MBEC99.9 values, SCV vs wild type
  tolerance of SCV strain biofilms relative to the wild-type strain: approximately four
[6]; 0.16 μg mL^−1
  Log-survival: −2.6 ± 0.8 log10 CFU peg^−1
  No. of survivors: 2.4 ± 0.8 log10 CFU peg^−1
  SCV frequency: 0%
[6]
  MBEC99.9: 0.12 ± 0.05 µg/mL
[7]
  selection for SCVs / increase of the frequency of SCV cells compared with growth controls: in no instances

## OO [H2O2, hydrogen peroxide]
[1]; PA14, 72 h
  MIC: 938 µg/mL (≈ 27600 µM)
[2]
  MIC: 1880 µg/mL (≈ 55100 µM)
[2]; planktonic PA14 SCV, by comparison, in words
  planktonic cell susceptibility: highly resistant
[3]
  MIC: 45 ± 16 µg/mL (≈ 1320 µM)
[3]; planktonic PA14 gacS, in words
  planktonic cell susceptibility: hypersensitive
[4]
  MBEC99.9: 352 ± 135 ppm
[5]
  MBEC99.9: 293 ± 203 ppm
[5]; in words
  biofilm survival at subMBEC99.9 concentrations relative to the wild-type strain: increased survival
[6]; 30 μg mL^−1
  Log-survival: −3.8 ± 1.1 log10 CFU peg^−1
  No. of survivors: 1.2 ± 1.1 log10 CFU peg^−1
  SCV frequency: 8%
[6]
  MBEC99.9: 22 ± 14 ppm
[6]; susceptibility assays, in words
  proportion of SCV cells recovered from biofilms after exposure, relative to growth controls: increased
